Source: US12180213B2, “Substituted pyrazoles showing serotonin 5-HT receptor activity” (Sumitomo Pharma Co., Ltd., priority 2018, dated 2024)

Target: T1, human 5-HT1A receptor (Homo sapiens (Human), UniProt P08908)
T1 sequence (P08908 whole entry): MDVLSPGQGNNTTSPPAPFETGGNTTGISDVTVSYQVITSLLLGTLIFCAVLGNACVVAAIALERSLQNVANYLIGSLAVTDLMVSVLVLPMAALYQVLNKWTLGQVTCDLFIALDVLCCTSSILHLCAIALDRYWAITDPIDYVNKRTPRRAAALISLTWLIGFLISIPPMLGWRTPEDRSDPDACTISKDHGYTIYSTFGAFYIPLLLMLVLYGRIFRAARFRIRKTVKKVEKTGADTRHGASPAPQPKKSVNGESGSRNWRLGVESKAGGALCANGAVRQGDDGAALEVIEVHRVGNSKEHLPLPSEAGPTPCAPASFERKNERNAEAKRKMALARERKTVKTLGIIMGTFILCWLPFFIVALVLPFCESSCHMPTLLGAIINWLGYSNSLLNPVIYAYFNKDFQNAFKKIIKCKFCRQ
Assay: Test 1: binding activity for human 5-HT1A receptor ([3H]8-OH-DPAT)
Settings: CHO cell membrane fraction
Procedure: (§1) Test 1: Evaluation of binding activity for human 5-HT1A receptor, human 5-HT2A receptor, and human D2 receptor
(§2) Binding affinity of the present compound for human 5-HT1A receptor, human 5-HT2A receptor, and human D2 receptor was measured by the following procedures.
(§3) Each mixture was incubated at room temperature for 60 minutes. Then, the mixture was added quickly on a glassfiber filter plate (Multiscreen FB, Millipore, Inc.) coated with 0.3% aqueous polyethylenimine, and vacuum-filtered. Radioactivity remaining on the filter was measured with a liquid scintillation counter (PerkinElmer, Inc.). Binding inhibition rate was calculated from the following formula.
IC50 value was calculated by Hill analysis (Physiology, 1910, 40, 190-200). Ki of each compound was calculated from the following formula.
(§4) Binding inhibition constant (Ki)=IC50/(1+S/Kd) wherein S is concentration of ligand; Kd is a binding dissociation constant of ligand to membrane, which is calculated from a saturated binding experiment conducted with the same cell membrane. A small Ki value means strong binding ability to a receptor.
In the case of `O=c1c2ncccc2ccn1CCN1CCN(c2nsc3cc(F)ccc23)CC1` [Example 12], the Ki is reported as 7.03 nM. In the case of `Cc1noc2c1C(=O)N(CCN1CCN(c3noc4ccccc34)CC1)CCC2` [Example 38], the Ki is reported as 13.5 nM. With `Cc1nc2c(o1)CCN(CCN1CCN(c3noc4ccccc34)CC1)C2=O` [Example 39] the Ki was 0.84 nM. With `O=C1c2oc(C3CC3)nc2CCC1CCN1CCN(c2nsc3ccccc23)CC1` (stereo not drawn) [Example 67] the Ki was 1.17 nM. Compound `CC1CC(CCN2CCC(c3noc4ccccc34)CC2)C(=O)c2ccn(C)c21` (stereo not drawn) [Example 82] has a Ki of 0.61 nM. Work on `COc1ccc2c(N3CCN(CCN4CCc5cccnc5C4=O)CC3)noc2c1` [Example 149] yielded a Ki of 184 nM.

Target: T2, human 5-HT2A receptor (Homo sapiens (Human), UniProt P28223)
T2 sequence (P28223 whole entry): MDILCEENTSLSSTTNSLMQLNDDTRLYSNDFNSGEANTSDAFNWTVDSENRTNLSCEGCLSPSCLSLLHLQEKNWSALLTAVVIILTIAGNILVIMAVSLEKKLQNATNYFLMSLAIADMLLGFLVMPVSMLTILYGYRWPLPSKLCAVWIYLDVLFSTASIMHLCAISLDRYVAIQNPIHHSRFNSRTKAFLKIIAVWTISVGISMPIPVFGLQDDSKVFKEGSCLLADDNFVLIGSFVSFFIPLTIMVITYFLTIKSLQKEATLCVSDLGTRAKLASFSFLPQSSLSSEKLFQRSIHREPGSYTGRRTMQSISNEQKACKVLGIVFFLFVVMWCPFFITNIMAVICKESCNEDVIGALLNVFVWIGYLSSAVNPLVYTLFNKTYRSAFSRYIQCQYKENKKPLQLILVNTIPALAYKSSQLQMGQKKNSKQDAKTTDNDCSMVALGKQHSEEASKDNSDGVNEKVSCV
Assay: Test 1: binding activity for human 5-HT2A receptor ([3H]Ketanserin)
Settings: CHO cell membrane fraction
Procedure: as §1, §2, §3
(§5) Ki of each compound was calculated from the following formula.
as §4
`Cn1ncc2c1CCCC(CCN1CCN(c3noc4ccccc34)CC1)C2=O` (stereo not drawn) [Example 30] gave a Ki of 0.76 nM. For `Cc1noc2c1C(=O)N(CCN1CCN(c3noc4ccccc34)CC1)CCC2` [Example 38], the Ki was 4.44 nM. For `Cc1cc2c(o1)C(=O)N(CCN1CCN(c3nsc4ccccc34)CC1)CC2` [Example 45], the Ki was 3.1 nM. In the case of `CC1CC(CCN2CCC(c3noc4ccccc34)CC2)C(=O)c2ccn(C)c21` (stereo not drawn) [Example 82], the Ki is reported as 0.87 nM. With `COc1ccc2c(N3CCN(CCN4CCc5cccnc5C4=O)CC3)noc2c1` [Example 149] the Ki was 217 nM.

Target: human D2 receptor (Homo sapiens (Human), UniProt P14416)
Sequence (P14416 whole entry): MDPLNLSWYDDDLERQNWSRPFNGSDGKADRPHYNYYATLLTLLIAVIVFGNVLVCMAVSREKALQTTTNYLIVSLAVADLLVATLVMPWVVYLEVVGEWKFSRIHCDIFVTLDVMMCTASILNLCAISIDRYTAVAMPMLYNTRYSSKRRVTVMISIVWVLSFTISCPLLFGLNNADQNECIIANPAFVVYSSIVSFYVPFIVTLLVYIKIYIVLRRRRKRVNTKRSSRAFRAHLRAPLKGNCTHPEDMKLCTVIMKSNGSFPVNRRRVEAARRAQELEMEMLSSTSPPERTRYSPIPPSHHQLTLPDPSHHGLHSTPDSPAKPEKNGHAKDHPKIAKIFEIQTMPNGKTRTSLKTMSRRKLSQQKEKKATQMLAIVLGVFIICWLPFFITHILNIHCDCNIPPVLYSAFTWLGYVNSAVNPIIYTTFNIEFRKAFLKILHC
Assay: Test 1: binding activity for human D2 receptor ([3H]Spiperone)
Settings: [3H]Spiperone, CHO cell membrane fraction
Procedure: as §1, §2, §3, §5, §4
Compound `O=c1c2ncccc2ccn1CCN1CCN(c2nsc3cc(F)ccc23)CC1` [Example 12] has a Ki of 311 nM. Compound `Cc1nc2c(o1)CCN(CCN1CCN(c3noc4ccccc34)CC1)C2=O` [Example 39] has a Ki of 1860 nM. `O=C1c2ncccc2CCN1CCN1CCN(c2noc3cc(Cl)ccc23)CC1` [Example 124] showed a Ki of over 10000 nM. `COc1ccc2c(N3CCN(CCN4CCc5cccnc5C4=O)CC3)noc2c1` [Example 149] gave a Ki of over 10000 nM.

Same assay, conditions: ratio of D2 Ki to 5-HT1A Ki
In the case of `O=c1c2ncccc2ccn1CCN1CCN(c2nsc3cc(F)ccc23)CC1` [Example 12], the “D2 Ki/5-HT1A Ki” value is reported as 44. In the case of `COc1ccc2c(N3CCN(CCN4CCc5cccnc5C4=O)CC3)noc2c1` [Example 149], the “D2 Ki/5-HT1A Ki” value is reported as over 54.3.

Same assay, conditions: ratio of D2 Ki to 5-HT2A Ki
With `O=c1c2ncccc2ccn1CCN1CCN(c2nsc3cc(F)ccc23)CC1` [Example 12] the “D2 Ki/5-HT2A Ki” value was 111. For `COc1ccc2c(N3CCN(CCN4CCc5cccnc5C4=O)CC3)noc2c1` [Example 149], the “D2 Ki/5-HT2A Ki” value was over 46.1.

Target: T1, human 5-HT1A receptor
Assay: Test 2: agonist activity for human 5-HT1A receptor ([35S]GTPγS binding)
Assay type: biochemical
Settings: agonist activity in the presence of 10 μM of compound, relative to 100 μmol/L 5-HT
Procedure: Test 2: Evaluation of Agonist Activity for Human 5-HT1A Receptor
CHO cell membrane fraction in which human 5-HT1A receptor was expressed as used in Test 1 was purchased. To a buffer containing guanosine diphosphate were added a test compound dissolved in DMSO, each receptor membrane sample diluted with buffer, and [^35S] Guanosine 5′-O-[gamma-thio]triphosphate (GTPγS). The mixture was incubated at room temperature for 60 minutes. Then, the mixture was added quickly on a glassfiber filter plate (Multiscreen FB, Millipore, Inc.), and vacuum-filtered. Radioactivity remaining on the […] was measured with a liquid scintillation counter. Agonist activity was calculated from the following formula.
Compound `O=c1c2ncccc2ccn1CCN1CCN(c2nsc3cc(F)ccc23)CC1` [Example 12] has an Emax at 10 µM of 32%. Compound `Cn1ncc2c1CCCC(CCN1CCN(c3noc4ccccc34)CC1)C2=O` (stereo not drawn) [Example 30] has an Emax at 10 µM of 42%. `Cc1noc2c1C(=O)N(CCN1CCN(c3noc4ccccc34)CC1)CCC2` [Example 38] gave an Emax at 10 µM of 56%. `Cc1nc2c(o1)CCN(CCN1CCN(c3noc4ccccc34)CC1)C2=O` [Example 39] showed an Emax at 10 µM of 61%. `Cc1cc2c(o1)C(=O)N(CCN1CCN(c3nsc4ccccc34)CC1)CC2` [Example 45] gave an Emax at 10 µM of 65%. Work on `O=C1c2oc(C3CC3)nc2CCC1CCN1CCN(c2nsc3ccccc23)CC1` (stereo not drawn) [Example 67] yielded an Emax at 10 µM of 65%. For `Cn1nc(Br)c2c1CCN(CCN1CCC(c3noc4ccccc34)CC1)C2=O` [Example 70], the “5-HT1A agonist activity Emax” value was 50%. In the case of `Cn1nc2c(c1Br)C(=O)N(CCN1CCN(c3nsc4ccccc34)CC1)CC2` [Example 73], the “5-HT1A agonist activity Emax” value is reported as 62%. Compound `CC1CC(CCN2CCC(c3noc4ccccc34)CC2)C(=O)c2ccn(C)c21` (stereo not drawn) [Example 82] has an Emax at 10 µM of 61%. Compound `COc1ccc2c(N3CCN(CCN4CCc5cccnc5C4=O)CC3)noc2c1` [Example 149] has an Emax at 10 µM of 16%.

Same assay, conditions: concentration at which half the activity of Emax was obtained
Work on `Cn1nc(Br)c2c1CCN(CCN1CCN(c3nsc4ccccc34)CC1)C2=O` [Example 69] yielded an EC50 of 33.9 nM.

Target: T2, human 5-HT2A receptor
Assay: Test 3: antagonist activity for human 5-HT2A receptor (aequorin luminescence, CHO-K1 cells)
Assay type: cell-based
Settings: against 1 nmol/L 5-HT
Procedure: Test 3: Evaluation of Antagonist Activity for Human 5-HT2A Receptor
Aequorin, Gα16 protein, and each receptor were transiently expressed in CHO-K1 cells (Chinese hamster ovary). […] Antagonist activity was calculated from the following formula.
Antagonist activity (%)=100×{(Luminescence of well in the presence of 1 nmol/L 5-HT−Luminescence of well containing solvent)−(Luminescence of well in the presence of test compound and 1 nmol/L 5-HT−Luminescence of well containing solvent)}/(Luminescence of well in the presence of 1 nmol/L 5-HT−Luminescence of well containing solvent)
With `O=C1c2cnccc2CCN1CCN1CCC(c2noc3ccccc23)CC1` [Example 13] the IC50 was 71 nM.

System: not listed separately
Assay: Test 4: metabolic stability test in human hepatic microsome
Assay type: in vitro ADME
Settings: 0.1 mg/mL microsome, 0.1 μmol/L compound, 37° C., 30 minutes
Procedure: Test 4: Metabolic Stability Test in Human Hepatic Microsome
The stability of the present compound in human hepatic microsome metabolism was evaluated as mentioned below. Human hepatic microsome was obtained from Xenontech. Human hepatic microsome, NADPH, and each test compound were mixed in 25 mmol/L phosphate buffer solution (pH 7.4) to reach the following concentrations as shown below, and the mixture was incubated at 37° C. for 30 minutes. • Human hepatic microsome: 0.1 mg/mL • NAPDH: 3.2 mmol/L • Test compound: 0.1 μmol/L
The residual ratio of the test compound in each sample after 30 minutes was measured by LC-MS, and the metabolic stability in human hepatic microsome was calculated from the following formula. Metabolic stability in human hepatic microsome (mL/min/mg protein)=−LN(residual ratio)/30/0.1
In the case of `O=c1c2ncccc2ccn1CCN1CCN(c2nsc3cc(F)ccc23)CC1` [Example 12], the “Metabolic stability in human hepatic microsome” value (from here on “Metabolic stability”) is reported as 0.02 mL/min/mg protein. With `O=C1c2cnccc2CCN1CCN1CCC(c2noc3ccccc23)CC1` [Example 13] the “Metabolic stability” value was under 0.01 mL/min/mg protein. With `Cn1ncc2c1CCCC(CCN1CCN(c3noc4ccccc34)CC1)C2=O` (stereo not drawn) [Example 30] the “Metabolic stability” value was 0.065 mL/min/mg protein. In the case of `Cc1noc2c1C(=O)N(CCN1CCN(c3noc4ccccc34)CC1)CCC2` [Example 38], the “Metabolic stability” value is reported as 0.136 mL/min/mg protein. For `Cc1nc2c(o1)CCN(CCN1CCN(c3noc4ccccc34)CC1)C2=O` [Example 39], the “Metabolic stability” value was 0.016 mL/min/mg protein. With `Cc1cc2c(o1)C(=O)N(CCN1CCN(c3nsc4ccccc34)CC1)CC2` [Example 45] the “Metabolic stability” value was 0.032 mL/min/mg protein. In the case of `O=C1c2oc(C3CC3)nc2CCC1CCN1CCN(c2nsc3ccccc23)CC1` (stereo not drawn) [Example 67], the “Metabolic stability” value is reported as 0.269 mL/min/mg protein. In the case of `CC1CC(CCN2CCC(c3noc4ccccc34)CC2)C(=O)c2ccn(C)c21` (stereo not drawn) [Example 82], the “Metabolic stability” value is reported as 0.072 mL/min/mg protein. In the case of `COc1ccc2c(n1)C(=O)N(CCN1CCN(c3noc4ccccc34)CC1)CC2` [Example 186], the “Metabolic stability” value is reported as 0.095 mL/min/mg protein. In the case of `COc1ccc2c(n1)C(=O)N(CCN1CCC(c3noc4ccccc34)CC1)CC2` [Example 187], the “Metabolic stability” value is reported as under 0.05 mL/min/mg protein.

Target: hERG channel (Homo sapiens (Human), UniProt Q12809)
Sequence (Q12809 whole entry): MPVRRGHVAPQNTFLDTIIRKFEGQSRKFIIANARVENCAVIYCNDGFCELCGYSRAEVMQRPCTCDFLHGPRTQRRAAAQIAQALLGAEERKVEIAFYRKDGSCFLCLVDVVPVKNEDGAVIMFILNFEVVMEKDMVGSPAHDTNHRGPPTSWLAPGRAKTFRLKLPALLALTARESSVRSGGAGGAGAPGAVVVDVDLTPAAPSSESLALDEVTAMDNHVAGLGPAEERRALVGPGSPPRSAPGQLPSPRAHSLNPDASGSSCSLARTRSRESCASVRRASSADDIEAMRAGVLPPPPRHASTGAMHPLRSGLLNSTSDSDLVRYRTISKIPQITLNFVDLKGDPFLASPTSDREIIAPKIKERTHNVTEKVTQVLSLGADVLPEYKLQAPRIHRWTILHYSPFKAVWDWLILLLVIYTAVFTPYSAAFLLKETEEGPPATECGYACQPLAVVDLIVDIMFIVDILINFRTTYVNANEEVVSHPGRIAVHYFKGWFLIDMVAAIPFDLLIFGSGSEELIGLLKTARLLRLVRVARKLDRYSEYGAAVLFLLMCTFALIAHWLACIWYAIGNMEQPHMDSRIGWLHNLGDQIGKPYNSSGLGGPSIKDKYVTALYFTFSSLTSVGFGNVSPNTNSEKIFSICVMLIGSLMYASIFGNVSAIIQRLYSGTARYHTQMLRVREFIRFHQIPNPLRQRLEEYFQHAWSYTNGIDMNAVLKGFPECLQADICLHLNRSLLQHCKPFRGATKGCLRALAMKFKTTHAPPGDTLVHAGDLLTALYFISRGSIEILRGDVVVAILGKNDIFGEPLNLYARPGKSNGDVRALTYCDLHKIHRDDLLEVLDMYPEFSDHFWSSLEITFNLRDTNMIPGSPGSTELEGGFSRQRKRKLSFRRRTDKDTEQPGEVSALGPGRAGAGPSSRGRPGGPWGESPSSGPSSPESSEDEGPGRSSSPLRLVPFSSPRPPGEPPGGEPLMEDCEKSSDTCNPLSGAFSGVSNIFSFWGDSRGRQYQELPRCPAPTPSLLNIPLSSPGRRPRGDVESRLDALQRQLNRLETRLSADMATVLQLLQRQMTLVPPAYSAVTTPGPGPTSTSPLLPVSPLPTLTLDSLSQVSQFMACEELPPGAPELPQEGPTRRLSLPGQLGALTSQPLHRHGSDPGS
Assay: Test 6-1: inhibitory activity for hERG channel (auto patch clamp, Qpatch)
Assay type: cell-based
Settings: hERG-CHO cells, whole cell patch clamp, read-out: hERG inhibition IC50
Procedure: Test 6-1: Evaluation of Inhibitory Activity for hERG Channel
Inhibitory activity of the present compound for hERG channel was measured by whole cell patch clamp method with an auto patch clamp system using CHO cells in which hERG channel involved in human rapidly activating delayed rectifier potassium current (IKr) was forcibly expressed.
(Preparation of cell suspension)
hERG-CHO cells purchased from ChanTest Cop. were cultured in a CO2 incubator at 37° C., and dissociated from a flask with trypsin shortly before the measurement of hERG current, to prepare a cell suspension.
(Preparation of Solution)
Extracellular and intracellular fluid used in the measurement were prepared as follows.
Intracellular fluid: 5.4 mmol/L CaCl2, 1.8 mmol/L MgCl2, 10 mmol/L HEPES, 31 mmol/L KOH, 10 mmol/L EGTA, 120 mmol/L KCl, 4 mmol/L Na2-ATP
Test compound solution: Test compound was dissolved in DMSO to reach the concentration of 2 mmol/L or 20 mmol/L, in order to prepare a test compound solution. […] (Measurement of Current Value and Data Analysis)
The cell suspension, the extracellular fluid, the intracellular fluid, and the measurement plate were set in the auto patch clamp system, and hERG current was measured by whole cell patch clamp method. […] Each pulse interval was 15 seconds. The data analysis was carried out with Qpatch Assay Software (Biolin Scientific). The test was carried out by applying incrementally 4 concentrations of each test compound, and the average of the maximum peak tail currents which were obtained from the last 3 stimulations in each concentration was determined as the evaluated data.
Compound `O=C1c2cnccc2CCN1CCN1CCC(c2noc3ccccc23)CC1` [Example 13] has an IC50 of 1100 nM.

Same assay, conditions: human, CHO cells that express hERG, whole cell patch clamp, read-out: hERG inhibition IC50
For `Cn1ncc2c1CCCC(CCN1CCN(c3noc4ccccc34)CC1)C2=O` (stereo not drawn) [Example 30], the IC50 was 900 nM. Work on `Cc1noc2c1C(=O)N(CCN1CCN(c3noc4ccccc34)CC1)CCC2` [Example 38] yielded an IC50 of 500 nM. Work on `Cc1cc2c(o1)C(=O)N(CCN1CCN(c3nsc4ccccc34)CC1)CC2` [Example 45] yielded an IC50 of 7000 nM.
